Assay results from PubChem BioAssay (NCI).
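Assay format: 96-well plates, 48-hour exposure. GI50 = concentration required for 50% inhibition of growth. The concentration for full growth arrest is given as TGI.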

Tests used:
Test in all cases: inhibition of tumour cell growth, NCI panel, 48 h
[1] = system: CAKI-1 renal
[2] = system: CCRF-CEM leukemia
[3] = system: DU-145 prostate
[4] = system: SK-MEL-2 melanoma
[5] = system: MDA-MB-231 breast
[6] = system: PC-3 prostate
[7] = system: MCF7 breast
[8] = system: HS 578T breast
[9] = system: MDA-MB-435
[10] = system: SW-620 colon
[11] = system: A549 NSCLC
[12] = system: SF-268 CNS
[13] = system: MALME-3M melanoma
[14] = system: 786-0 renal
[15] = system: HCC-2998 colon
[16] = system: U251 CNS
[17] = system: SF-539 CNS
[18] = system: IGROV1 ovarian
[19] = system: RPMI-8226 leukemia
[20] = system: SK-OV-3 ovarian
[21] = system: UACC-257 melanoma
[22] = system: OVCAR-8 ovarian
[23] = system: HT29 colon
[24] = system: M14 melanoma
[25] = system: K-562 leukemia
[26] = system: SNB-75 CNS
[27] = system: KM12 colon
[28] = system: HOP-62 NSCLC
[29] = system: OVCAR-3 ovarian
[30] = system: SF-295 CNS
[31] = system: SNB-19 CNS
[32] = system: OVCAR-4 ovarian
[33] = system: COLO 205 colon
[34] = system: NCI-H226 lung
[35] = system: T-47D breast
[36] = system: EKVX NSCLC
[37] = system: A498 renal
[38] = system: NCI-H460 lung
[39] = system: SK-MEL-28 melanoma
[40] = system: BT-549 breast
[41] = system: RXF 393 renal
[42] = system: HCT-116 colon
[43] = system: UACC-62 melanoma
[44] = system: SR leukemia
[45] = system: NCI-H522 lung
[46] = system: UO-31 renal
[47] = system: NCI-H23 lung
[48] = system: SN12C renal
[49] = system: TK-10 renal
[50] = system: ACHN renal
[51] = system: LOX IMVI melanoma
[52] = system: SK-MEL-5 melanoma
[53] = system: OVCAR-5 ovarian
[54] = system: HCT-15 colon
[55] = system: NCI/ADR-RES ovarian
[56] = system: HL-60(TB) leukemia
[57] = system: MOLT-4 leukemia

## [N-]=[N+]=NCCCn1c2c(c3ccc([N+](=O)[O-])cc3c1=O)C(=O)c1cc(F)ccc1-2
[1]
  GI50: 0.288 µM
  TGI: 4.68 µM
[2]
  GI50: 0.432 µM
  TGI: 3.88 µM
[3]
  GI50: 0.547 µM
  TGI: > 63.5 µM
[4]
  GI50: 9.24 µM
  TGI: > 75.1 µM
[5]
  GI50: 30.3 µM
  TGI: > 100 µM
[6]
  GI50: 1.25 µM
  TGI: 43.2 µM
[7]
  GI50: 0.311 µM
  TGI: > 55.1 µM
[8]
  GI50: 36.5 µM
  TGI: > 100 µM
[9]
  GI50: 4.15 µM
  TGI: > 86.4 µM
[10]
  GI50: 1.76 µM
  TGI: > 100 µM
[11]
  GI50: 5.14 µM
  TGI: > 100 µM
[12]
  TGI: 4.32 µM
[13]
  GI50: 3.46 µM
  TGI: 19.8 µM
[14]
  GI50: 0.334 µM
  TGI: 2.01 µM
[15]
  GI50: 14.5 µM
  TGI: > 100 µM
[16]
  GI50: 0.539 µM
  TGI: 8.89 µM
[17]
  GI50: 2.38 µM
  TGI: > 100 µM
[18]
  GI50: 2.3 µM
  TGI: > 30.2 µM
[19]
  GI50: 0.237 µM
  TGI: 1.28 µM
[20]
  GI50: 2.82 µM
  TGI: 19.3 µM
[21]
  GI50: 10.3 µM
  TGI: > 100 µM
[22]
  GI50: 2.67 µM
  TGI: > 100 µM
[23]
  GI50: 1.24 µM
  TGI: > 35.2 µM
[24]
  GI50: 1.13 µM
  TGI: 11.1 µM
[25]
  GI50: 1.25 µM
  TGI: > 100 µM
[26]
  GI50: 2.13 µM
  TGI: 29 µM
[27]
  GI50: 2.13 µM
  TGI: > 26.2 µM
[28]
  GI50: 0.32 µM
  TGI: 7.04 µM
[29]
  GI50: 3.76 µM
  TGI: 26 µM
[30]
  GI50: 0.338 µM
  TGI: 9.94 µM
[31]
  GI50: 1.05 µM
  TGI: > 100 µM
[32]
  GI50: 16.2 µM
  TGI: > 95.7 µM
[33]
  GI50: 9.26 µM
  TGI: > 100 µM
[34]
  GI50: 2.26 µM
  TGI: > 46.8 µM
[35]
  GI50: 0.295 µM
  TGI: 3.08 µM
[36]
  GI50: 61.2 µM
  TGI: > 100 µM
[37]
  GI50: 11.8 µM
  TGI: 72.2 µM
[38]
  GI50: 0.132 µM
  TGI: 2.34 µM
[39]
  GI50: 11.9 µM
  TGI: > 100 µM
[40]
  GI50: 5.37 µM
  TGI: > 100 µM
[41]
  GI50: 4.32 µM
  TGI: 54.6 µM
[42]
  GI50: 0.388 µM
  TGI: 3.3 µM
[43]
  GI50: 0.523 µM
  TGI: 3.55 µM
[44]
  GI50: 0.113 µM
  TGI: 2.86 µM
[45]
  GI50: 0.853 µM
  TGI: 12.2 µM
[46]
  GI50: 0.807 µM
  TGI: 12.6 µM
[47]
  GI50: 2.69 µM
  TGI: 19 µM
[48]
  GI50: 0.703 µM
[49]
  GI50: 16.7 µM
  TGI: > 100 µM
[50]
  GI50: 0.269 µM
  TGI: 1.55 µM
[51]
  GI50: 0.343 µM
  TGI: 1.86 µM
[52]
  GI50: 0.803 µM
  TGI: 3.16 µM
[53]
  GI50: 14.4 µM
  TGI: > 100 µM
[54]
  GI50: 5.86 µM
  TGI: > 100 µM
[55]
  GI50: 1.46 µM
  TGI: > 49 µM
[56]
  GI50: 0.202 µM
  TGI: 1.64 µM
[57]
  GI50: 0.245 µM
  TGI: 2.7 µM
